Test results as given in PMC5118987 (Antimicrobial Agents and Chemotherapy, 2016).

Assays:
[1] = tested on: HIV-1 clinical isolates; test: Antiviral assay against HIV-1 clinical isolates in fresh human PBMCs (RT endpoint)
[2] = tested on: Influenza A/PC/1/73; test: microbe, parasite or virus in culture; assay type: cell-based; conditions: NHBE
[3] = tested on: HIV-1 IIIb; test: microbe, parasite or virus in culture; conditions: Human immunodeficiency virus 1, IIIB, MT4
Protocol: Each compound series was prepared several times independently in quadruplicate to capture the variations in Hill slope associated with preparation of compound serial dilutions. The assay was performed in a 384-well format. MT-4 cells were infected in bulk at the same MOI as that described above, and the plates were developed with CellTiter-Glo reagent 5 days postinfection.

[4] = tested on: HIV-2 CDC 310319; test: Antiviral assay against HIV-2 isolate in fresh human PBMCs (RT endpoint); conditions: Human immunodeficiency virus 2, PBMC
[5] = Cytotoxicity assay in MT-2 cells; assay type: cell-based; conditions: human, uninfected MT-2 cells
Protocol: For the antiviral assay utilizing MT-2 and MT-4 cells, 50 μl of a 2× test concentration of 5-fold serially diluted compound in culture medium with 10% FBS was added to each well of a 96-well plate (9 concentrations) in triplicate. MT-2 and MT-4 cells were infected with HIV-1 IIIb at a multiplicity of infection (MOI) of 0.01 for 3 h. Fifty microliters of infected cell suspension in culture medium with 10% FBS (∼1.5 × 10^4 cells) then was added to each well containing 50 μl of diluted compound. The plates were then incubated at 37°C for 5 days. After 5 days of incubation, 100 μl of CellTiter-Glo reagent (Promega Biosciences, Inc., Madison, WI) was added to each well containing MT-2 or MT-4 cells. Cell lysis was carried out by incubation at room temperature for 10 min and chemiluminescence was read. For compound cytotoxicity assessment, the protocol was identical except that uninfected cells were used and compounds were serially diluted 3-fold.

[6] = tested on: NRTI-, NNRTI- and PI-Resistant HIV-1 Mutants; test: Antiviral activity against NRTI-, NNRTI- and PI-resistant HIV-1 mutants; assay type: cell-based; conditions: Human immunodeficiency virus 1; WT, Table S7
[7] = in vitro; conditions: human, CC50 in Primary Human Hepatocytes
[8] = tested on: HRV (mixture of HRV1A, HRV14, HRV16); test: microbe, parasite or virus in culture; assay type: cell-based; conditions: Human rhinovirus sp., H1-HeLa
[9] = via inhibition of OCT2 in proximal tubule; cited from earlier work
[10] = tested on: organic cation transporter 2 (OCT2); conditions: read-out: IC50 inhibition of organic cation transporter 2 (OCT2); cited from earlier work
[11] = in vitro; conditions: human, 6 days
Excerpt: Freshly isolated human peripheral blood mononuclear cells (PBMCs) were obtained from healthy volunteers (supplied by AllCells, Inc., Alameda, CA). Blood donors were negative for HIV-1, hepatitis B, and hepatitis C viral infections. CD4^+ T lymphocytes were isolated by negative selection using a magnetically labeled antibody cocktail ([sequence] Technologies Inc., Vancouver, Canada) and cultured in RPMI cell culture media (Life Technologies, Grand Island, NY) supplemented with 10% FBS. CD4^+ T cells were activated for 48 h at 37°C by addition of 1 μg/ml phytohemagglutinin (PHA; Sigma, St. Louis, MO) and 5 ng/ml interleukin-2 (IL-2; Roche Diagnostics, Indianapolis, IN). […] Human PBMCs were used for cytotoxicity assays after culturing for 48 h in either complete RPMI medium alone (resting conditions) or RPMI containing 1 μg/ml PHA and 5 ng/ml IL-2 (activated conditions).

[12] = Cytotoxicity in AD38 cells; conditions: human
[13] = tested on: HIV-1 patient-derived isolates with INSTI resistance mutations; test: PhenoSense IN assay, 47 patient-derived isolates; assay type: cell-based
Protocol: Forty-seven resistance test vectors containing patient-derived IN coding regions were constructed using standard Monogram Biosciences protocols. […] The fold change from the NL4-3 wild-type reference vector values was determined. Statistical significance was determined using the Student two-tailed t test.

## C[C@@H]1CCO[C@H]2Cn3cc(C(=O)NCc4ccc(F)cc4F)c(=O)c(O)c3C(=O)N12 [DTG, Dolutegravir]
[1]; Human immunodeficiency virus 1, BAL, PBMC, HIV-1 subtype B isolate BaL, human PBMCs
  EC50: 0.32 ± 0.11 nM
[1]; Human immunodeficiency virus 1, PBMC, HIV-1 subtype A isolate 92RW016, human PBMCs
  EC50: 0.34 ± 0.09 nM
[1]; Human immunodeficiency virus 1, PBMC, HIV-1 subtype A isolate 92UG037, human PBMCs
  EC50: 0.66 ± 0.05 nM
[1]; Human immunodeficiency virus 1, PBMC, HIV-1 subtype B isolate 89BZ_167, human PBMCs
  EC50: 1.4 ± 0.4 nM
[1]; Human immunodeficiency virus 1, PBMC, HIV-1 subtype B isolate 91US001, human PBMCs
  EC50: 0.8 ± 0.48 nM
[1]; Human immunodeficiency virus 1, PBMC, HIV-1 subtype B isolate 91US004, human PBMCs
  EC50: 1 ± 0.4 nM
[1]; Human immunodeficiency virus 1, PBMC, HIV-1 subtype C isolate 93IN905, human PBMCs
  EC50: 0.17 ± 0.03 nM
[1]; Human immunodeficiency virus 1, PBMC, HIV-1 subtype C isolate 98US_MSC5016, human PBMCs
  EC50: 0.75 ± 0.09 nM
[1]; Human immunodeficiency virus 1, PBMC, HIV-1 subtype D isolate 98UG_57128, human PBMCs
  EC50: 0.32 ± 0.48 nM
[1]; Human immunodeficiency virus 1, PBMC, HIV-1 subtype E isolate 96TH_M02138, human PBMCs
  EC50: 0.11 ± 0.01 nM
[1]; Human immunodeficiency virus 1, PBMC, HIV-1 subtype E isolate 96TH_NI1046, human PBMCs
  EC50: 0.25 ± 0.08 nM
[1]; Human immunodeficiency virus 1, PBMC, HIV-1 subtype F isolate 93BR020, human PBMCs
  EC50: 0.4 ± 0.19 nM
[2]
  EC50: 12.8 µM
[3]
  EC50: 1.7 ± 0.2 nM
[4]
  EC50: 2.5 ± 0.5 nM
[5]
  CC50 at 5 days: 5.35 µM
[6]
  EC50: 1.6 ± 0.5 nM
[7]; Donor 1
  CC50: > 100 µM
[7]; Donor 2
  CC50: > 100 µM
[8]
  EC50: > 50 µM
[9]
  increase of human serum creatinine levels: about 10%
[10]
  IC50: 1930 nM
[11]; CC50, Activated PBMCs (IL-2/PHA 2 days)
  CC50: 23.9 µM
[11]; CC50, Resting PBMCs
  CC50: 30.6 µM
[12]
  CC50 at 5 days: > 50 µM

## Cc1nnc(C(=O)NC(C)(C)c2nc(C(=O)NCc3ccc(F)cc3)c(O)c(=O)n2C)o1 [RAL, raltegravir]
[13]; 47 patient-derived isolates
  % of Isolates (Fold-Change vs. WT) (2.5 to <5): 4%
  % of Isolates (Fold-Change vs. WT) (5 to <10): 4%
  % of Isolates (Fold-Change vs. WT) (≤2.5): 2%
  % of Isolates (Fold-Change vs. WT) (≥10): 89%
  Fold-Change vs. WT Mean: > 100 fold change
  Fold-Change vs. WT Median: > 143 fold change
[13]; isolate entry 1: L74M,T97A
  Susceptibility (Fold-change vs. WT): 8.48 fold-change
[13]; isolate entry 2: L68V,Y143C
  Susceptibility (Fold-change vs. WT): 4.06 fold-change
[13]; isolate entry 3: L68L/V,L74M,Y143R
  Susceptibility (Fold-change vs. WT): > 143 fold-change
[13]; isolate entry 4: T97A
  Susceptibility (Fold-change vs. WT): 1.78 fold-change
[13]; isolate entry 5: T97A,F121Y
  Susceptibility (Fold-change vs. WT): 112 fold-change
[13]; isolate entry 6: T97A,Y143R
  Susceptibility (Fold-change vs. WT): > 143 fold-change
[13]; isolate entry 7: F121Y
  Susceptibility (Fold-change vs. WT): 12 fold-change
[13]; isolate entry 8: L74M,N155H
  Susceptibility (Fold-change vs. WT): 89 fold-change
[13]; isolate entry 9: T97A,N155H
  Susceptibility (Fold-change vs. WT): 53 fold-change
[13]; isolate entry 10: T97A,Y143C
  Susceptibility (Fold-change vs. WT): > 143 fold-change
[13]; isolate entry 11: E92Q,E157E/Q
  Susceptibility (Fold-change vs. WT): 4.8 fold-change
[13]; isolate entry 12: E92Q
  Susceptibility (Fold-change vs. WT): 18 fold-change
[13]; isolate entry 13: N155H,E157E/Q
  Susceptibility (Fold-change vs. WT): 19 fold-change
[13]; isolate entry 14: E92Q
  Susceptibility (Fold-change vs. WT): 6.7 fold-change
[13]; isolate entry 15: Y143R
  Susceptibility (Fold-change vs. WT): 22 fold-change
[13]; isolate entry 16: Y143R
  Susceptibility (Fold-change vs. WT): 16 fold-change
[13]; isolate entry 17: N155H
  Susceptibility (Fold-change vs. WT): 107 fold-change
[13]; isolate entry 18: Y143C
  Susceptibility (Fold-change vs. WT): 14 fold-change
[13]; isolate entry 19: T97A,Y143C
  Susceptibility (Fold-change vs. WT): > 143 fold-change
[13]; isolate entry 20: Q148R,E138A
  Susceptibility (Fold-change vs. WT): 43 fold-change
[13]; isolate entry 21: N155H,G163R
  Susceptibility (Fold-change vs. WT): 15 fold-change
[13]; isolate entry 22: E92Q,N155H
  Susceptibility (Fold-change vs. WT): > 143 fold-change
[13]; isolate entry 23: E138K,Q148R
  Susceptibility (Fold-change vs. WT): 54 fold-change
[13]; isolate entry 24: G140S,Q148H
  Susceptibility (Fold-change vs. WT): > 143 fold-change
[13]; isolate entry 25: E92Q,N155H,G163R
  Susceptibility (Fold-change vs. WT): > 143 fold-change
[13]; isolate entry 26: G140A,Q148R
  Susceptibility (Fold-change vs. WT): 88 fold-change
[13]; isolate entry 27: G140S,Q148H
  Susceptibility (Fold-change vs. WT): > 143 fold-change
[13]; isolate entry 28: G140S,Q148H
  Susceptibility (Fold-change vs. WT): > 143 fold-change
[13]; isolate entry 29: G140S, Q148H
  Susceptibility (Fold-change vs. WT): > 143 fold-change
[13]; isolate entry 30: E138K,G140S,Q148H
  Susceptibility (Fold-change vs. WT): > 143 fold-change
[13]; isolate entry 31: G140S,Q148H
  Susceptibility (Fold-change vs. WT): > 143 fold-change
[13]; isolate entry 32: G140S,Q148H, G163K
  Susceptibility (Fold-change vs. WT): > 143 fold-change
[13]; isolate entry 33: G140S,Q148H
  Susceptibility (Fold-change vs. WT): > 143 fold-change
[13]; isolate entry 34: E138K,G140S,Q148H
  Susceptibility (Fold-change vs. WT): > 143 fold-change
[13]; isolate entry 35: E138K G140S Q148H
  Susceptibility (Fold-change vs. WT): > 114 fold-change
[13]; isolate entry 36: G140S,Q148H
  Susceptibility (Fold-change vs. WT): > 143 fold-change
[13]; isolate entry 37: G140S,Q148R
  Susceptibility (Fold-change vs. WT): > 143 fold-change
[13]; isolate entry 38: G140S,Q148H
  Susceptibility (Fold-change vs. WT): > 143 fold-change
[13]; isolate entry 39: G140S,Q148H
  Susceptibility (Fold-change vs. WT): > 143 fold-change
[13]; isolate entry 40: T97A,G140S,Q148H
  Susceptibility (Fold-change vs. WT): > 143 fold-change
[13]; isolate entry 41: E138K,G140C,Q148R
  Susceptibility (Fold-change vs. WT): > 143 fold-change
[13]; isolate entry 42: L74L/M,G140A,Q148R
  Susceptibility (Fold-change vs. WT): > 143 fold-change
[13]; isolate entry 43: G140S,Q148R
  Susceptibility (Fold-change vs. WT): > 143 fold-change
[13]; isolate entry 44: G140S,Q148H,E138A
  Susceptibility (Fold-change vs. WT): > 143 fold-change
[13]; isolate entry 45: T97A,G140S,Q148H
  Susceptibility (Fold-change vs. WT): > 143 fold-change
[13]; isolate entry 46: L74M,G140C,Q148R
  Susceptibility (Fold-change vs. WT): > 143 fold-change
[13]; isolate entry 47: E138K,G140A,Q148K
  Susceptibility (Fold-change vs. WT): > 143 fold-change
